Tests used:
purified holo-IRP1 = target: T1, purified holo-IRP1 (Homo sapiens, UniProt P21399); assay: IRE gel shift assay on purified holo-IRP1; format: biochemical
T1 sequence (P21399 1-889): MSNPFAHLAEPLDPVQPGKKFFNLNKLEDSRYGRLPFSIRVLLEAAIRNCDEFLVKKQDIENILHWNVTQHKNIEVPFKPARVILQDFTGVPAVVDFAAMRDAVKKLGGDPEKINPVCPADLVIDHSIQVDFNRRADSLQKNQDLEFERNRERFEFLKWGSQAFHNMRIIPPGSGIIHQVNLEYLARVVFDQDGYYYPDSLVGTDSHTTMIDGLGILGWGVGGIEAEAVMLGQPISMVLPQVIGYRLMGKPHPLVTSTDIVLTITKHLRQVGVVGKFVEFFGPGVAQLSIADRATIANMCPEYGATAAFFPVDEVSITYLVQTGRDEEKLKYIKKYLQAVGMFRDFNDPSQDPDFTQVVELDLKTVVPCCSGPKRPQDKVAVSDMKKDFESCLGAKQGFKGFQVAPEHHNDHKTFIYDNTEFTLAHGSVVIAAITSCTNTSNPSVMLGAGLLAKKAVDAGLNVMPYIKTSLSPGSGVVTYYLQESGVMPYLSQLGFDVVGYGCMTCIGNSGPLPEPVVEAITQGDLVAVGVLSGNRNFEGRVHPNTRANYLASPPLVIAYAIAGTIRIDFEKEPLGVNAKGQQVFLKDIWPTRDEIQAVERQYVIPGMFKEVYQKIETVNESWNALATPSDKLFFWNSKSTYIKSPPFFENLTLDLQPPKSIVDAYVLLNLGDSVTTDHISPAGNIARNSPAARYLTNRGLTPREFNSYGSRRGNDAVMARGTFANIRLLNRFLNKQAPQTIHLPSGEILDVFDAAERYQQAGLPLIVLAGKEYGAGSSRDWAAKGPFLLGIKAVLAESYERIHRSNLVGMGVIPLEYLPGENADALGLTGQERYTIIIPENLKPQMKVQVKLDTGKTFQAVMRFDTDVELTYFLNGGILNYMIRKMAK
Experimental: RNA mobility shift assays: Gel retardation assays were performed as described in Meyron-Holtz et al., EMBO J, 23, 386-395 (2004). Tissue lysates were prepared in an anaerobic chamber as described above in oxygen-depleted lysis buffer containing 10 mM HEPES (pH 7.2), 3 mM MgC12, 40 mM KCl, 5% glycerol, 0.2% Nonidet P-40, 5 mM DTT, 1 mM AEBSF, 10 μg/ml. Leupeptin and complete TM EDTA free protease inhibitor cocktail (Roche Applied Science, Indiana). Lysate (x μl) containing 10 μg of total protein was added to (12.5−x) μl of bandshift buffer containing 25 mM Tris-HCl (pH 7.5) and 40 mM KCl. The samples were incubated for 5 min at room temperature (RT) with 12.5 μl of a reaction cocktail containing 20% glycerol, 0.2 U/μl Super RNAsine (Ambion, Tex.), 0.6 μg/μl yeast t-RNA, 5 mM DTT and 20 nM 32P-labelled IRE from human ferritin H-chain gene in 25 mM Tris-HCl (pH 7.5) and 40 mM KCl. A measure of 20 μl of this reaction mixture was loaded into a 10% acrylamide/TBE gel, which was run at 200 V for 2.15 h, and then the gel was fixed, dried and exposed for autoradiography.
Soum et al., J. Biol Inorg Chem, 8, 226-232 (2003). IRE-binding activity of purified holo-IRP1 (11 ng) was assessed by an IRE gel shift assay. Purified protein (11 ng) was incubated with 0.1% β-mercaptoethanol for 2 h at room temperature without (lane 1) or with (lane 2) 1 mM tempol. Sample in lane 3 was treated with 2% β-mercaptoethanol for 2 min after 2 h incubation without tempol.

IRP2−/− mice = assay: Observation of other signs of neurodegeneration in IRP2−/− mice; format: in vivo; details: IRP2−/− mice supplemented with Tempo1
From the text: Background on Experimental Model: In the following examples, IRP2−/− mice are used to model neurodegerative disease. The neurodegeneration of IRP2−/− animals is characterized by progressive loss of motor capabilities, for example as measured in mice by performance on hang-tests, rotarod rotating drum treadmill testing, balance beams, climbing pole tests, allelerods, footprints, decreased grooming activities and gait abnormalities in adult animals. The neurodegeneration of IRP2−/− animals progresses slowly as animals age.
(§1) Diet: The mice were weaned 3-4 weeks after their birth. Immediately after weaning, mice were maintained on either a Tempo1-supplemented or control diet. In the Tempo1-supplemented diet, powdered Tempo1 was uniformly mixed with bacon-flavored mouse chow by a “cold press” technique (Bio-Serv, Frenchtown, N.J., USA) at a concentration of 10 mg/g of food. Bacon-flavored chow without Tempo1 was used as the control diet.

ferritin = assay: Immunohistochemistry of ferritin in hippocampus and cortex; format: in vivo; details: hippocampus and cortex of IRP2−/− mice
Experimental: as §1
Immunohistochemistry: Paraffin-embedded tissue sections were boiled in a micro oven for 15 min for antigen retrieval in 10 mM citrate buffer pH 6.4 after dewaxing and rehydrating. The sections were blocked in blocking buffer (Tris-buffered saline pH 7.4, 5% nomial goat serum, 0.1% Tween-20) for 30 min, then were incubated with polyclonal rabbit anti-ferritin antibody for 2 h at room temperature, the protein-antibody complex was labeled by CY3-donkey anti-rabbit antibody (Jackson ImmunoResearch Laboratories, Inc., West Grove, Pa.), nuclei were labeled by DAPI as counterstaining. The slides were observed and the pictures were recorded with Nikon Eclipse E600 fluorescence microscope.
Immunohistochemical studies were performed to analyze ferritin expression in the hippocampus and cortexregions of the mouse brains. […] The overexpression of ferritin decreased with Tempo1 treatment.

ferric iron accumulation = assay: Perls' DAB stain for ferric iron in cerebellar folia and striatum; format: in vivo, mice; details: cerebellar folia and striatum of IRP2−/− animals on Tempo1 diet
Experimental: as §1
Perl's DAB iron staining: After dewaxing and rehydrating, paraffin-embeded tissue sections were stained in prewarmed staining solution (5% potassium ferrocyanide 15.0 ml, 5% hydrochloric acid 15.0 ml, 15 sec in micro oven) for 5 min. The sections were rinsed with distilled water and Tris-buffered saline pH7.4, then were stained with DAB staining solution (20 mg DAB, 50 μl 30% H2O2, 20 ml Tris-buffered saline pH 7.4) for 30 min at room temperature. After rinsing with distilled water, the sections were mounted with Crystal Mount mounting solution (Sigma) and were observed and taken pictures with Nikon Eclipse E600 fluorescence microscope.
Cerebellar folia and striatum of wild type and IRP2−/− mice that were maintained on a control diet or on a Tempo1-supplemented diet were analyzed for ferric iron accumulation using Perls' DAB stain. […]

With `CC1(C)CC(O)CC(C)(C)N1[O]` [Tempo1] the “recruitment of IRE-binding activity” value (purified holo-IRP1; holo-IRP1, 1.0 mM, 3 h at 37° C., FIG. 6b) was “almost completely recruited”, the “IRE binding activity vs IRP1 exposed to room air alone” value (purified holo-IRP1; purified holo-IRP1, 2 h at room temperature and 3 h at 37° C.) was “much higher” and the “IRE binding activity of IRP1” value (purified holo-IRP1; purified holo-IRP1 treated with Tempo1) was “increased”. The “other signs of neurodegeneration (movement disorders, tremor, abnormalities of gait and grooming)” value (IRP2−/− mice) was “did not develop”, the overexpression of ferritin (ferritin) was “decreased” and the ferric iron staining (ferric iron accumulation) was “decreased”.
